In general, pKd refers to −log10 of the Kd, conventionally taken in molar units.

The text below walks through data of paper PMC12715507, “CARF-HAD phosphatase effectors provide immunity during the type III-A CRISPR–Cas response” (Nucleic Acids Research, 2025).

This test deals with T1, BbChp.
T1 construct: CARF domain (307–528), N-terminal 6xHis
In words: thermal shift assay (DSF) titration, Tm […] to […] °C. The test is classed as binding, Bacteroidales bacterium.

pKd: −log10 of the molar value.

For `Nc1ncnc2c1ncn2[C@@H]1O[C@@H]2COP(=O)(O)O[C@H]3[C@@H](O)[C@H](n4cnc5c(N)ncnc54)O[C@@H]3COP(=O)(O)O[C@H]3[C@@H](O)[C@H](n4cnc5c(N)ncnc54)O[C@@H]3COP(=O)(O)O[C@H]3[C@@H](O)[C@H](n4cnc5c(N)ncnc54)O[C@@H]3COP(=O)(O)O[C@H]2[C@H]1O` [cA4], the negative logarithm of the Kd (pKd) is 6.56.
